Literature values as cited in article PMC4801399, “Impact of a CXCL12/CXCR4 Antagonist in Bleomycin (BLM) Induced Pulmonary Fibrosis and Carbon Tetrachloride (CCl4) Induced Hepatic Fibrosis in Mice” (PLoS ONE, 2016).

Columns and labels:
[1] = tested on: BLM induced PF; details: cited from earlier work
[2] = tested on: liver fibrosis; details: cited from earlier work

## c1cc(CN2CCCNCCNCCCNCC2)ccc1CN1CCCNCCNCCCNCC1 [AMD3100]
[1]; 3 and 7 days post BLM treatment
  number of fibrocytes in the lung: decreased
[1]
  mortality associated with BLM induced PF: alleviate
[1]; murine model of BLM induced PF
  lung fibrosis and fibrocyte infiltration into the lung: reduce
[2]
  liver fibrosis: increased
  transcript levels of Acta2 and Col1a1: increased
